# Assay results taken from Sander's compilation of Henry's law constants (doi:10.1016/0304-3894(88)85057-x).
# Assay: Henry solubility constant Hcp at 298.15 K (mol/(m3 Pa))
# Conditions: reference: Ashworth et al. (1988)
row,Structure (SMILES),Henry solubility constant Hcp
1,"ClC(Cl)C(Cl)Cl [1,1,2,2-tetrachloroethane]",0.022
2,Clc1ccccc1 [chlorobenzene],0.0025
3,"C=C(Cl)Cl [1,1-dichloroethene]",0.00037
4,C1CCCCC1 [cyclohexane],5.5e-05
5,"Cc1cc(C)cc(C)c1 [1,3,5-trimethylbenzene]",0.0014
6,"CC(Cl)(Cl)Cl [1,1,1-trichloroethane]",0.00057
7,ClC(Cl)(Cl)C(Cl)(Cl)Cl [hexachloroethane],0.0012
8,CC(=O)CC(C)C [4-methyl-2-pentanone],0.022
9,"Clc1cccc(Cl)c1 [1,3-dichlorobenzene]",0.003
10,"Cc1cccc(C)c1 [1,3-dimethylbenzene]",0.0013
11,Cc1ccccc1 [methylbenzene],0.0015
12,CC(C)c1ccccc1 [(2-propyl)-benzene],0.0016
13,CCCCCC [hexane],9.9e-06
14,CCCC(C)C [2-methylpentane],1.3e-05
15,"Cc1ccc(C)cc1 [1,4-dimethylbenzene]",0.0013
16,"CC(Cl)CCl (centres undefined) [1,2-dichloropropane]",0.0038
17,"Cc1ccccc1C [1,2-dimethylbenzene]",0.0019

row,Structure (SMILES),Henry solubility constant Hcp
1,ClCCl [dichloromethane],0.0034
2,"c1ccc2c(c1)CCCC2 [1,2,3,4-tetrahydronaphthalene]",0.0051
3,C=CCl [chloroethene],0.0004
4,CCCc1ccccc1 [propylbenzene],0.0009
5,"Cc1ccc(O)c(C)c1 [1-hydroxy-2,4-dimethylbenzene]",0.0019
6,ClC(Cl)(Cl)Cl [tetrachloromethane],0.00033
7,C1CCC2CCCCC2C1 (centres undefined) [decahydronaphthalene],7.2e-05
8,c1ccccc1 [benzene],0.0018
9,"Clc1ccc(Cl)cc1 [1,4-dichlorobenzene]",0.0031
10,CCCl [chloroethane],0.00079
11,ClC(Cl)=C(Cl)Cl [tetrachloroethene],0.00054
12,COCCO [2-methoxyethanol],0.00022
13,"ClCC(Cl)Cl [1,1,2-trichloroethane]",0.01
14,CCc1ccccc1 [ethylbenzene],0.0012
15,ClC(Br)Br [dibromochloromethane],0.0085
16,CCCCCCCCC [nonane],2.3e-05
17,ClC=C(Cl)Cl [trichloroethene],0.00095
